According to paper PMC9633586 (Biochemistry, 2022):

Molecular target: Cj1438 (Campylobacter jejuni, UniProt Q0P8H6)
Test: […] NMR, formation of S-11
Format: biochemical
Settings: 20 mM MgCl2, 10 mM ATP, 10 mM D-glucuronate, 50 mM HEPES/K+ pH 8.0, 25 °C

## N[C@@H](CO)COP(=O)(O)O [S-4, S-serinol phosphate]
  31P NMR, formation of S-11: Cj1438 catalyzes the formation of compound S-11 using D-glucuronate, MgATP, and S-serinol phosphate (S-4).
